We go through 12 compounds from ChEMBL document CHEMBL1132811, “Bisquaternary caracurine V derivatives as allosteric modulators of ligand binding to M2 acetylcholine receptors” (Bioorg Med Chem Lett, 2000).

As a reminder, the EC50 is the concentration at which the effect is half-maximal.

The assay addresses T1, Muscarinic acetylcholine receptor M2 (Sus scrofa, UniProt P06199).
T1 sequence (P06199 whole entry): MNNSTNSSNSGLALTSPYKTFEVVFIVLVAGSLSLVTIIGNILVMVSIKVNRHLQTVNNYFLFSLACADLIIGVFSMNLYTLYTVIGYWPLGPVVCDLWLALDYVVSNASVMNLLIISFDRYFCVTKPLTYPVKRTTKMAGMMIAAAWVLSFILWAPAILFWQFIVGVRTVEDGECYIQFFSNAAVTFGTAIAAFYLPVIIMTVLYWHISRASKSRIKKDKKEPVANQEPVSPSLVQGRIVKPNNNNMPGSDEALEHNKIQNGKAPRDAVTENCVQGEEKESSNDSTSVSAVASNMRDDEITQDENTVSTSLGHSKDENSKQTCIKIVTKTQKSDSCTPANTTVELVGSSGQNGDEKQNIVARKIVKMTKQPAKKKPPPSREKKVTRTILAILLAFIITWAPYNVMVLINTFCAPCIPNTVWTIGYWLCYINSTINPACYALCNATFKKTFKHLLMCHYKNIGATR
As to the kind of experiment: Allosteric inhibition of [3H]NMS (N-methyl-scopolamine) dissociation from porcine cardiac Muscarinic acetylcholine receptor M2.
As for `O=[N+]([O-])c1ccc(C[N+]23CCC45c6ccccc6N6[C@@H]7OCC=C8C[N+]9(Cc%10ccc([N+](=O)[O-])cc%10)CCC%10%11c%12ccccc%12N([C@@H]%12OCC=C(C2)[C@H](C[C@@H]43)[C@@H]%12[C@H]65)[C@H]%10[C@H]7[C@H]8C[C@@H]%119)cc1` (some centres not stated), the concentration for a half-maximal effect (EC50) turned out to be 0.315 µM.

The compound `C=CC[N+]12CCC34c5ccccc5N5[C@@H]6OCC=C7C[N+]8(CC=C)CCC9%10c%11ccccc%11N([C@@H]%11OCC=C(C1)[C@H](C[C@@H]32)[C@@H]%11[C@H]54)[C@H]9[C@H]6[C@H]7C[C@@H]%108` (some centres not stated) returned an EC50 of 0.003 µM.

`C1=C2C[N@+]3(Cc4ccccc4)CC[C@]45c6ccccc6N6[C@@H]7OCC=C8C[N@+]9(Cc%10ccccc%10)CC[C@]%10%11c%12ccccc%12N([C@H](OC1)[C@@H]([C@H]64)[C@H]2C[C@@H]53)[C@H]%10[C@H]7[C@H]8C[C@@H]%119` came in with an EC50 of 0.069 µM.

Compound `C1=C2C[N+]3(Cc4ccc5ccccc5c4)CCC45c6ccccc6N6[C@@H]7OCC=C8C[N+]9(Cc%10ccc%11ccccc%11c%10)CCC%10%11c%12ccccc%12N([C@H](OC1)[C@@H]([C@H]64)[C@H]2C[C@@H]53)[C@H]%10[C@H]7[C@H]8C[C@@H]%119` (some centres not stated) displayed a concentration for a half-maximal effect (EC50) of 1.56 µM.

On to `C#CC[N+]12CCC34c5ccccc5N5[C@@H]6OCC=C7C[N+]8(CC#C)CCC9%10c%11ccccc%11N([C@@H]%11OCC=C(C1)[C@H](C[C@@H]32)[C@@H]%11[C@H]54)[C@H]9[C@H]6[C@H]7C[C@@H]%108` (some centres not stated), for which the EC50 turned out to be 0.004 µM.

Turning to `FC(F)(F)c1ccc(C[N+]23CCC45c6ccccc6N6[C@@H]7OCC=C8C[N+]9(Cc%10ccc(C(F)(F)F)cc%10)CCC%10%11c%12ccccc%12N([C@@H]%12OCC=C(C2)[C@H](C[C@@H]43)[C@@H]%12[C@H]65)[C@H]%10[C@H]7[C@H]8C[C@@H]%119)cc1` (some centres not stated), the EC50 is 1.75 µM.

With `O=C1c2ccccc2C(=O)N1CCC[N+]12CCC34c5ccccc5N5[C@@H]6OCC=C7C[N+]8(CCCN9C(=O)c%10ccccc%10C9=O)CCC9%10c%11ccccc%11N([C@@H]%11OCC=C(C1)[C@H](C[C@@H]32)[C@@H]%11[C@H]54)[C@H]9[C@H]6[C@H]7C[C@@H]%108` (some centres not stated), the EC50 is 0.376 µM.

The compound `Brc1ccc(C[N+]23CCC45c6ccccc6N6[C@@H]7OCC=C8C[N+]9(Cc%10ccc(Br)cc%10)CCC%10%11c%12ccccc%12N([C@@H]%12OCC=C(C2)[C@H](C[C@@H]43)[C@@H]%12[C@H]65)[C@H]%10[C@H]7[C@H]8C[C@@H]%119)cc1` (some centres not stated) had an EC50 of 0.507 µM.

Compound `C1=C2CN3CCC45c6ccccc6N6[C@@H]7OCC=C8CN9CCC%10%11c%12ccccc%12N([C@H](OC1)[C@@H]([C@H]64)[C@H]2C[C@H]35)[C@H]%10[C@H]7[C@H]8C[C@H]9%11` (some centres not stated) displayed an EC50 of 1.19 µM.

Consider `CCC[N+]12CCC34c5ccccc5N5[C@@H]6OCC=C7C[N+]8(CCC)CCC9%10c%11ccccc%11N([C@@H]%11OCC=C(C1)[C@H](C[C@@H]32)[C@@H]%11[C@H]54)[C@H]9[C@H]6[C@H]7C[C@@H]%108` (some centres not stated), for which the half-maximal effective concentration (EC50) is 0.03 µM.

For `C[N+]12CCC34c5ccccc5N5[C@@H]6OCC=C7C[N+]8(C)CCC9%10c%11ccccc%11N([C@@H]%11OCC=C(C1)[C@H](C[C@@H]32)[C@@H]%11[C@H]54)[C@H]9[C@H]6[C@H]7C[C@@H]%108` (some centres not stated), the 50% effective concentration (EC50) was 0.008 µM.

As to `COc1ccc(C[N+]23CCC45c6ccccc6N6[C@@H]7OCC=C8C[N+]9(Cc%10ccc(OC)c(OC)c%10)CCC%10%11c%12ccccc%12N([C@@H]%12OCC=C(C2)[C@H](C[C@@H]43)[C@@H]%12[C@H]65)[C@H]%10[C@H]7[C@H]8C[C@@H]%119)cc1OC` (some centres not stated), the EC50 was found to be 0.342 µM.
